Laboratory results reported in ChEMBL document CHEMBL1201862, “PubChem BioAssay data set” (2004).
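Briefly, cells in 96-well plates were exposed to five compound concentrations for 48 h, and endpoints were estimated by linear interpolation. The concentration for 50% growth inhibition is given as GI50.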 Calls of active or inactive are those of the source. Rule as the data show it: active = GI50 up to about 1.1 µM and inactive = higher.

Key:
Assay in all cases: inhibition of tumour cell growth, NCI panel, 48 h
[1] = system: 786-0
[2] = system: A498
[3] = system: A549
[4] = system: ACHN
[5] = system: CCRF-CEM
[6] = system: COLO 205
[7] = system: DLD-1
[8] = system: DMS-114
[9] = system: EKVX
[10] = system: HCC 2998
[11] = system: HCT-116
[12] = system: HL-60
[13] = system: HOP-18
[14] = system: HOP-62
[15] = system: HOP-92
[16] = system: HT-29
[17] = system: IGROV-1
[18] = system: K562
[19] = system: KM-20L2
[20] = system: KM12
[21] = system: LOX IMVI
[22] = system: LXFL 529
[23] = system: M14
[24] = system: M19-MEL
[25] = system: MOLT-4
[26] = system: Malme-3M
[27] = system: NCI-H226
[28] = system: NCI-H23
[29] = system: NCI-H460
[30] = system: NCI-H522
[31] = system: OVCAR-3
[32] = system: OVCAR-4
[33] = system: OVCAR-8
[34] = system: RPMI-8226
[35] = system: RXF 393
[36] = system: RXF 631
[37] = system: SF-268
[38] = system: SF-295
[39] = system: SF-539
[40] = system: SK-MEL-28
[41] = system: SK-MEL-5
[42] = system: SK-OV-3
[43] = system: SN12C
[44] = system: SNB-19
[45] = system: SNB-75
[46] = system: SNB-78
[47] = system: SR
[48] = system: SW-620
[49] = system: TK-10
[50] = system: U-251
[51] = system: UACC-257
[52] = system: UACC-62
[53] = system: UO-31
[54] = system: XF498
[55] = system: CAKI-1
[56] = system: DMS-273
[57] = system: HCT-15
[58] = system: OVCAR-5
[59] = system: SK-MEL-2

In the case of `O=C1N(c2ccc(Cl)cc2)C(=O)C2(SC=NN2Cc2ccccc2)N1c1ccc(Cl)cc1` (stereo not drawn), the GI50 [1] is reported as > 100 µM (inactive), the GI50 [2] is reported as > 100 µM (inactive) and the GI50 [3] is reported as 96.4 µM (inactive). The GI50 [4] was > 100 µM (inactive), the GI50 [5] was 7.57 µM (inactive) and the GI50 [6] was > 10 µM (inactive). The GI50 [7] was > 100 µM (inactive), the GI50 [8] was 12.3 µM (inactive) and the GI50 [9] was > 100 µM (inactive). For the same molecule, the GI50 [10] was > 100 µM (inactive), the GI50 [11] was 9.18 µM (inactive) and the GI50 [12] was 7 µM (inactive). For the same molecule, the GI50 [13] was > 100 µM (inactive), the GI50 [14] was > 100 µM (inactive) and the GI50 [15] was > 100 µM (inactive). The GI50 [16] was > 100 µM (inactive), the GI50 [17] was > 100 µM (inactive) and the GI50 [18] was 9.59 µM (inactive). The GI50 [19] was > 100 µM (inactive), the GI50 [20] was > 100 µM (inactive) and the GI50 [21] was > 100 µM (inactive). For the same molecule, the GI50 [22] was > 100 µM (inactive), the GI50 [23] was > 100 µM (inactive) and the GI50 [24] was > 100 µM (inactive). For the same molecule, the GI50 [25] was 7.87 µM (inactive), the GI50 [26] was > 100 µM (inactive) and the GI50 [27] was > 100 µM (inactive). The GI50 [28] was 8.24 µM (inactive), the GI50 [29] was > 100 µM (inactive) and the GI50 [30] was 7.76 µM (inactive). The GI50 [31] was 51.1 µM (inactive), the GI50 [32] was > 100 µM (inactive) and the GI50 [33] was > 100 µM (inactive). For the same molecule, the GI50 [34] was 8.34 µM (inactive), the GI50 [35] was 37.9 µM (inactive) and the GI50 [36] was > 100 µM (inactive). The GI50 [37] was > 100 µM (inactive), the GI50 [38] was > 10 µM (inactive) and the GI50 [39] was 34.3 µM (inactive). For the same molecule, the GI50 [40] was > 100 µM (inactive), the GI50 [41] was > 100 µM (inactive) and the GI50 [42] was > 100 µM (inactive). For the same molecule, the GI50 [43] was > 100 µM (inactive), the GI50 [44] was > 100 µM (inactive) and the GI50 [45] was 64.7 µM (inactive). For the same molecule, the GI50 [46] was > 100 µM (inactive), the GI50 [47] was 9.95 µM (inactive) and the GI50 [48] was > 100 µM (inactive). For the same molecule, the GI50 [49] was > 100 µM (inactive), the GI50 [50] was > 100 µM (inactive) and the GI50 [51] was > 100 µM (inactive). The GI50 [52] was > 100 µM (inactive), the GI50 [53] was > 100 µM (inactive) and the GI50 [54] was 28.6 µM (inactive).

For `CC1=CCCC(OC(N)=O)C1` (stereo not drawn), the GI50 [1] was > 100 µM (inactive), the GI50 [2] was 32.4 µM (inactive) and the GI50 [3] was > 100 µM (inactive). The GI50 [4] was > 100 µM (inactive), the GI50 [55] was > 100 µM (inactive) and the GI50 [5] was > 100 µM (inactive). For the same molecule, the GI50 [6] was > 100 µM (inactive), the GI50 [7] was > 100 µM (inactive) and the GI50 [56] was > 100 µM (inactive). For the same molecule, the GI50 [9] was > 100 µM (inactive), the GI50 [10] was > 100 µM (inactive) and the GI50 [11] was > 100 µM (inactive). The GI50 [57] was over 100 µM, the GI50 [12] was > 100 µM (inactive) and the GI50 [13] was > 100 µM (inactive). For the same molecule, the GI50 [14] was > 100 µM (inactive), the GI50 [15] was 46.2 µM (inactive) and the GI50 [16] was > 100 µM (inactive). The GI50 [17] was > 100 µM (inactive), the GI50 [18] was > 100 µM (inactive) and the GI50 [19] was > 100 µM (inactive). The GI50 [20] was > 100 µM (inactive), the GI50 [21] was > 100 µM (inactive) and the GI50 [22] was > 100 µM (inactive). For the same molecule, the GI50 [23] was > 100 µM (inactive), the GI50 [24] was > 100 µM (inactive) and the GI50 [25] was > 100 µM (inactive). For the same molecule, the GI50 [26] was > 100 µM (inactive), the GI50 [28] was > 100 µM (inactive) and the GI50 [29] was > 100 µM (inactive). For the same molecule, the GI50 [31] was > 100 µM (inactive), the GI50 [32] was > 100 µM (inactive) and the GI50 [58] was > 100 µM (inactive). For the same molecule, the GI50 [33] was > 100 µM (inactive), the GI50 [34] was > 100 µM (inactive) and the GI50 [35] was > 100 µM (inactive). For the same molecule, the GI50 [36] was > 100 µM (inactive), the GI50 [37] was > 100 µM (inactive) and the GI50 [38] was > 100 µM (inactive). For the same molecule, the GI50 [39] was > 100 µM (inactive), the GI50 [59] was > 100 µM (inactive) and the GI50 [41] was > 100 µM (inactive). The GI50 [42] was > 100 µM (inactive), the GI50 [43] was > 100 µM (inactive) and the GI50 [44] was > 100 µM (inactive). For the same molecule, the GI50 [45] was 97.7 µM (inactive), the GI50 [46] was > 100 µM (inactive) and the GI50 [48] was > 100 µM (inactive). For the same molecule, the GI50 [49] was > 100 µM (inactive), the GI50 [50] was > 100 µM (inactive) and the GI50 [51] was > 100 µM (inactive). The GI50 [52] was > 100 µM (inactive), the GI50 [53] was > 100 µM (inactive) and the GI50 [54] was > 100 µM (inactive).
